{"source": "patent US9849125B1", "about": "“Anti-overingestion dosage forms” (BANNER LIFE SCIENCES LLC, priority 2015, dated 2017)", "test": "In vitro dissolution of multiple capsules together in 0.1 N HCl (USP Apparatus II)", "assay_type": "physicochemical", "procedure": "To test the anti-over ingestion properties of the pharmaceutical composition, multiple capsules were combined in a single reaction vessel and percentage of API released was measured. […] The in vitro dissolutions studies of dextromethorphan from Amberlite™ IRP69 from multiple capsules (1, 5, and 10) were carried out in 0.1 HCl with each 200 mg capsule containing 40 mg of the drug.\nAn additional experiment was performed to support the concept that the ceiling effect was not caused by solubility/sink limitation, but rather by retention by sequestering.\nNext, the possibility to gain the same sequestering effect using physical blend of drug with resin instead of drug resinate complex was explored."}
{"smiles": "COc1ccc2c(c1)[C@]13CCCC[C@@H]1[C@H](C2)N(C)CC3", "note": "[dextromethorphan]", "values": [{"measurement": "release from 1 capsule (40 mg) vs 10 capsules (400 mg) without resin", "value": "dose proportional release"}]}
